Here are results for two substances from patent publication US20260092085A1, “SYNTHETIC TRIPLEX PEPTIDE NUCLEIC ACID-BASED INHIBITORS FOR CANCER THERAPY” (University of Connecticut, priority 2022, published 2026).

In data set [1] the test system is miR-155. Briefly: miR-155 gene expression in U2932 tumor samples after in vivo treatment. The arrangement: species or system NSG mice. The settings on record: U2932 xenograft, intra-tumoral. How it is done: FIGS. 22A-D show in vivo gene expression and protein level analysis. (22A) miR-155 gene expression levels in U2932 tumor samples after in vivo treatment with indicated PNAs. Data was normalized with average control U6 (n=4, data represented as mean±standard error mean). ***p<0.001 (22B) Gene expression level of downstream target genes of miR-155: MCL1 in U2932 tumor samples after treatment with total 3 mg kg-1 dose of Scr-γtcPNA-155, PNA-155, γPNA-155 and γtcPNA-155 and normalized with average control GAPDH (n=3, data represented as mean±SEM), unpaired two-tailed t-test was performed for analysis). *p<0.05, **p<0.01 (22C) Representative western blot of Mcl-1 protein and its quantification (n=3 technical replicate) in U2932 tumor samples treated with total 3 mg kg-1 dose of Scr-γtcPNA-155, PNA-155 and γtcPNA-155. Data is represented as mean±SEM and unpaired two-tailed t-test was performed for analysis. *p<0.05. The relative protein levels were determined from the band intensity using ImageJ software and normalized relative to loading control and treatment control. (22D) Gene expression level of tumor suppressor proteins (FOXO3A, CUX1, SOCS1, CSF1R, JARID2, SHIP1, PICALM, PDCD4, BACH1, CASP3) in U2932 tumor samples after treatment with total 3 mg kg-1 dose of Scr-γtcPNA-155, PNA-155, γPNA-155 and γtcPNA-155 and normalized with average control GAPDH (n=3, data represented as mean±SEM, unpaired two-tailed t-test was performed for statistical analysis). *p<0.05, **p<0.01.
RNA and Protein extraction from tumor samples: The mice were injected intra-tumorally with 1 mg kg-1 dose of PNA-155, γtcPNA-155, γPNA-155, Scr-γtcPNA-155 or were untreated. The injections were repeated two additional times after 1 week each. The length, breadth, and depth of the tumors were measured daily using a vernier caliper. The mice were euthanized when the tumor volumes reached 2000 mm^3. The resected tumor sections were finely minced using a sterile blade and suspended in dissociation media (4 ml) comprising of RPMI-1640, 1.2 mg/ml dispase, and 0.5 mg/ml collagenase for 90 mins at 500 rpm at 37° C. The dissociated tumors were washed with buffer saline at 2500 rpm (4 mins) at 4° C. and then suspended in 0.25% trypsin for 4 mins at room temperature. RPMI 1640 media was added to the trypsinized tumor mass, and the cells were passed through a 70 um filter. The cells were centrifuged at 2500 rpm for 4 mins at 4° C. The cell pellet was then suspended in 1×RBC lysis buffer (Sigma) and incubated on ice for 10 mins. PBS was added to the cells and the cells were passed through a 40 um filter. The cells were centrifuged at 2500 rpm for 4 mins at 4° C. The cell pellet was resuspended in 0.5% BSA in PBS. […]

The test system of data set [2] is U2932 subcutaneous tumors. Nature of the data set: Tumor growth in U2932 derived xenograft model. It counts as in vivo, NSG mice. Conditions: intra-tumoral injections days 0, 7, 14. How it is done:
Mouse tumor xenograft: Female NSG mice (NOD.Cg-Prkdcscid Il2rgtm1Wjl/SzJ, strain 005557) weighing 20-23 g were procured from Jackson laboratories. 1×10^7 U2932 cells suspended in RPMI-1640 medium were injected subcutaneously in the right and left flank of 6-week-old NSG mice. The mice developed a small bump in 2 weeks. When the tumor volume reached 100-200 mm^3, the mice were randomly assigned to the treatment group (n=6 per group).
RNA and Protein extraction from tumor samples: The mice were injected intra-tumorally with 1 mg kg-1 dose of PNA-155, γtcPNA-155, γPNA-155, Scr-γtcPNA-155 or were untreated. The injections were repeated two additional times after 1 week each. The length, breadth, and depth of the tumors were measured daily using a vernier caliper. The mice were euthanized when the tumor volumes reached 2000 mm^3. The resected tumor sections were finely minced using a sterile blade and suspended in dissociation media (4 ml) comprising of RPMI-1640, 1.2 mg/ml dispase, and 0.5 mg/ml collagenase for 90 mins at 500 rpm at 37° C. The dissociated tumors were washed with buffer saline at 2500 rpm (4 mins) at 4° C. and then suspended in 0.25% trypsin for 4 mins at room temperature. RPMI 1640 media was added to the trypsinized tumor mass, and the cells were passed through a 70 um filter. The cells were centrifuged at 2500 rpm for 4 mins at 4° C. The cell pellet was then suspended in 1×RBC lysis buffer (Sigma) and incubated on ice for 10 mins. PBS was added to the cells and the cells were passed through a 40 um filter. The cells were centrifuged at 2500 rpm for 4 mins at 4° C. The cell pellet was resuspended in 0.5% BSA in PBS. The mouse cells were removed from the tumor cells using a mouse cell depletion kit (Miltenyi Biotec) according to the manufacturer's protocol. The enriched tumor cells from each tumor sample were divided into two fractions. RNA for gene expression analysis was extracted from one tumor fraction by the same procedure as mentioned earlier. The protein for western blot analysis was extracted from the second fraction using the method described above.
For the efficacy study, each mouse received three intra-tumoral injections of either γtcPNA-155, γPNA-155 or PNA-155 on days 0, 7, 14. We noticed that the control and scrambled treated tumors reached 2000 mm^3 much faster during our study, so we could not inject a third time in these mice. […] In contrast, as stated earlier, there was no effect on the control and scrambled PNA control on the tumor volume.

{RR} = two arginine residues at the PNA terminus

Take “PNA-155: conventional full-length regular PNA (23mer), RR-ACCCCTATCACGATTAGCATTAA-RR, SEQ ID NO: 1 (all peptide nucleic acid (PNA), 5' {RR}, 3' {RR}) [reference compound]”: the “decrease in miR-155 gene expression in tumors” value in data set [1] is reported as 75%. Besides, the “tumor growth / tumor volume” value in data set [2] is “reduced the tumor growth”.

Regarding “γtcPNA-155: serine gamma tail-clamp anti-miR-155 PNA, RR-TJJJJ-OOO-ACCCCTATCACGATTAGCATTAA-RR, SEQ ID NO: 3 (all peptide nucleic acid (PNA); serine gamma PNA, tail-clamp TJJJJ via linkers, Arg-Arg at both ends)”, the “decrease in miR-155 gene expression in tumors” value in data set [1] amounted to 90%. In addition, the “tumor growth / tumor volume” value in data set [2] was “reduced the tumor growth”.
